Patent publication US5137811A, “Method for diagnosing periodontal diseases with a substrate specific for aminopeptidase activity of periodontopathic bacteria” (Sunstar Kabushiki Kaisha, priority 1986, dated 1992)
Where a SMILES comes first, the peptide text is derived from it. The star is where a group is joined. βNA = c1ccc2cc(N*)ccc2c1

What was measured:
Actinomyces israelli [1] = experiment: Hydrolytic activity of cell suspension, substrates alone or in combination (Experiment 3); type: cell-based; settings: two strains, Table 3
Procedure: (§1) The strains of Treponema were anaerobically cultivated using TYGVS media at 37° C. for 7 days, while other bacterial strains were cultivated using brain heart infusion broth at 37° C. for 48 to 72 hours. Each culture was diluted to obtain a bacterial cell suspension, the absorption at 660 nm of which was 1.0.
(§2) Substrate compounds for aminopeptidase enzyme having various color developing groups derived from β-naphthylamine were dissolved in 0.1M Tris-HCl buffer (pH 7.0) at the concentration of 0.2 mM to obtain substrate solutions.
(§3) To the substrate solution (1.5 ml) was added the above cell suspension (0.3 ml) and reacted at 37° C. for 60 minutes. After completion of the reaction, a coloring reagent [prepared by dissolving diazonium salt of Garnet GBC in 1M acetate buffer (containing 10% Tween 20, pH: 4.2) at the concentration of 0.5 mg/ml] was added and, after 15 minutes, the absorption at 525 nm was determined with a spectrophotometer.
(§4) On the basis of the average amount of released β-naphthylamine in each strain, the hydrolytic activity was expressed as follows: […]
(§5) According to the same manner as described in Experiment 1, periodontopathic bacteria specific aminopeptidase activity was tested by using four strains of Treponema denticola, five strains of B. gingivalis, four strains of Actinobacillus actinomycetemcomitans, two strains of Actinomyces israelli and three strains of Fusobacterium nucleatum. Abbreviations in Table 3 are the same as those in Tables 1 and 2. Hydrolytic activity "+++" means "40≤release amount<80 nmol/ml" and "++++" means "release amount≥80 nmol/ml".

Fusobacterium nucleatum [2] = experiment: as above; type: cell-based; settings: three strains, Table 3
Procedure: as §1, §2, §3, §4, §5

Treponema denticola [3] = experiment: as above; type: cell-based; settings: four strains, Table 3
Procedure: as §1, §2, §3, §4, §5

[4] = system: Actinobacillus actinomycetemcomitans; experiment: as above; type: cell-based; settings: four strains, Table 3
Procedure: as §1, §2, §3, §4, §5

B. gingivalis [5] = experiment: as above; type: cell-based; settings: five strains, Table 3
Procedure: as §1, §2, §3, §4, §5

[6] = system: periodontopathic bacteria specific aminopeptidase activity; experiment: Hydrolytic activity of gingival crevicular fluid specimens, OD525 (Experiment 6); type: biochemical
Procedure: as §2, §3
Specimens of gingival crevicular fluid were collected with paper points from five subjects who were considered to be healthy from their clinical state, six subjects with gingivitis and six subjects with periodontitis. Each specimen was dispersed in Ringer's solution (1.5 ml), and the relative amount of spirochete to total bacteria: [formula] was determined with a phase contrast microscope. Further, the Ringer's solution (0.3 ml) was tested for hydrolytic activity using the substrate solution prepared in the same manner as described in Experiment 1. As substrates, there were used compounds of the formula [1], i.e., N-benzoylvalyl-glycyl-arginine-β-naphthylamide (BzVGR) and N-carbobenzoxy-valyl-glycyl-arginine-β-naphthylamide (CxVGR) were used.
According to the same manner as described in Experiment 4, hydrolytic activity was tested by using the compounds of the formulas and [2], i.e., glycyl-proline-βnaphthylamide (GP), N-benzoyl-arginyl-glycyl-phenylalanylproline-β-naphthylamide (BzRGFP), N-carbobenzoxy-valylglycyl-arginine-β-naphthylamide (CxVGR) and N-benzoylglycyl-arginine-β-naphthylamide (BzGR) alone or in combination. Hydrolytic activity was determined by measuring absorption at 525 nm (OD525) and expressed as follows.

Actinomyces israelli [7] = experiment: Hydrolytic activity of cell suspension on aminopeptidase substrates (Experiment 2); type: cell-based; settings: two strains, Table 2
Outline: (§6)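 A660 1.0 cell suspension + 0.2 mM β-naphthylamine-derived aminopeptidase substrate, 0.1M Tris-HCl pH 7.0, 37° C., 60 min. Garnet GBC (0.5 mg/ml, acetate pH 4.2, 10% Tween 20), 15 min, A525. Activity graded from mean β-naphthylamine released per strain.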

Fusobacterium nucleatum [8] = experiment: as above; type: cell-based; settings: three strains, Table 2
Outline: as §6

Treponema denticola [9] = experiment: as above; type: cell-based; settings: four strains, Table 2
Outline: as §6

B. intermedius = experiment: as above; type: cell-based; settings: three strains, Table 2
Outline: as §6

[10] = system: Actinobacillus actinomycetemcomitans; experiment: as above; type: cell-based; settings: four strains, Table 2
Outline: as §6

B. gingivalis [11] = experiment: as above; type: cell-based; settings: five strains, Table 2
Outline: as §6

B. corporis = experiment: as above; type: cell-based; settings: Table 2
Outline: as §6

B. denticola = experiment: as above; type: cell-based; settings: Table 2
Outline: as §6

B. melaninogenicus = experiment: as above; type: cell-based; settings: two strains, Table 2
Outline: as §6

Structure (SMILES): NCC(=O)N1CCC[C@H]1C(=O)Nc1ccc2ccccc2c1 [GP, glycyl-proline-β-naphthylamide] (H-Gly-Pro-βNA)
- hydrolytic activity (release amount) (Actinomyces israelli [1]): - (release amount<5 nmol/ml)
- hydrolytic activity (release amount) (Fusobacterium nucleatum [2]): - (release amount<5 nmol/ml)
- hydrolytic activity (release amount) (Treponema denticola [3]): ++ (20 ≤release amount<40 nmol/ml)
- hydrolytic activity (release amount) [4]: - (release amount<5 nmol/ml)
- hydrolytic activity (release amount) (B. gingivalis [5]): +++ (40≤release amount<80 nmol/ml)
- hydrolytic activity, absorption at 525 nm (OD525) ([6]; Gingivitis subject 1 (spirochete 7.3 %)): + (0.1≤OD525 <0.2)
- hydrolytic activity, absorption at 525 nm (OD525) ([6]; Gingivitis subject 2 (spirochete 16.7 %)): + (0.1≤OD525 <0.2)
- hydrolytic activity, absorption at 525 nm (OD525) ([6]; Gingivitis subject 3 (spirochete 20.5 %)): ++ (0.2≤OD525 <0.4)
- hydrolytic activity, absorption at 525 nm (OD525) ([6]; Gingivitis subject 4 (spirochete 6.8 %)): - (OD525 <0.1)
- hydrolytic activity, absorption at 525 nm (OD525) ([6]; Gingivitis subject 5 (spirochete 7.3 %)): - (OD525 <0.1)
- hydrolytic activity, absorption at 525 nm (OD525) ([6]; Gingivitis subject 6 (spirochete 14.4 %)): + (0.1≤OD525 <0.2)
- hydrolytic activity, absorption at 525 nm (OD525) ([6]; Healthy subject 1 (spirochete 0.1 %)): - (OD525 <0.1)
- hydrolytic activity, absorption at 525 nm (OD525) ([6]; Healthy subject 3 (spirochete 1.1 %)): - (OD525 <0.1)
- hydrolytic activity, absorption at 525 nm (OD525) ([6]; Healthy subject 4 (spirochete 0.6 %)): - (OD525 <0.1)
- hydrolytic activity, absorption at 525 nm (OD525) ([6]; Healthy subject 5 (spirochete 1.3 %)): - (OD525 <0.1)
- hydrolytic activity, absorption at 525 nm (OD525) ([6]; Periodontitis subject 1 (spirochete 45.2 %)): +++ (0.4≤OD525 <0.8)
- hydrolytic activity, absorption at 525 nm (OD525) ([6]; Periodontitis subject 2 (spirochete 30.3 %)): +++ (0.4≤OD525 <0.8)
- hydrolytic activity, absorption at 525 nm (OD525) ([6]; Periodontitis subject 3 (spirochete 34.6 %)): +++ (0.4≤OD525 <0.8)
- hydrolytic activity, absorption at 525 nm (OD525) ([6]; Periodontitis subject 4 (spirochete 21.2 %)): ++ (0.2≤OD525 <0.4)
- hydrolytic activity, absorption at 525 nm (OD525) ([6]; Periodontitis subject 5 (spirochete 40.3 %)): +++ (0.4≤OD525 <0.8)
- hydrolytic activity, absorption at 525 nm (OD525) ([6]; Periodontitis subject 6 (spirochete 35.1 %)): +++ (0.4≤OD525 <0.8)
- hydrolytic activity (average amount of released β-naphthylamine) (Actinomyces israelli [7]): - (release amount<5 nmol/ml)
- hydrolytic activity (average amount of released β-naphthylamine) (Fusobacterium nucleatum [8]): - (release amount<5 nmol/ml)
- hydrolytic activity (average amount of released β-naphthylamine) (Treponema denticola [9]): ++ (20 ≤release amount<40 nmol/ml)
- hydrolytic activity (average amount of released β-naphthylamine) (B. intermedius): + (10 ≤release amount<20 nmol/ml)
- hydrolytic activity (average amount of released β-naphthylamine) [10]: - (release amount<5 nmol/ml)
- hydrolytic activity (average amount of released β-naphthylamine) (B. gingivalis [11]): +++ (release amount≥40 nmol/ml)
- hydrolytic activity (average amount of released β-naphthylamine) (B. corporis): ++ (20 ≤release amount<40 nmol/ml)
- hydrolytic activity (average amount of released β-naphthylamine) (B. denticola): - (release amount<5 nmol/ml)
- hydrolytic activity (average amount of released β-naphthylamine) (B. melaninogenicus): ++ (20 ≤release amount<40 nmol/ml)
